Measured values published in patent US11168092B2 (priority 2019, dated 2021).
Several values for one entry are separate records, joined by “and”; a condition that tells them apart may be missing. Equal values may be shown once.

Columns and labels:
Assay type in all cases: cell-based
Parameters in all cases: unit not given here
lung cancer cells (A549) = system: lung cancer cells (A549)
[1] = system: ovarian cancer cells (SK-OV-3)
[2] = system: skin cancer cells (SK-MEL-2)
[3] = system: colorectal cancer cells (HCT15)

CC1=CC(=O)OCC23CCC(C)(O)C4CC5(O)C(CC(OC(=O)C=CC=CC(C(C)O)OCC1)C52C)OC43 [compound 1, (1R,4Z,6E,8R,12E,16aR,19S,20S,20aR,22R,23S,23aS)-19,23-dihydroxy-8-((R)-1-hydroxyethyl)-12,19,23a-trimethyl-10,11,17,18,19,20,20a,22,23,23a-decahydro-1H-1,22:20,23-dimethano[1,6,12]trioxacyclooctadecino[3,4-d]chromene-3,14(8H,16H)-dione]
Anticancer activity (value at given concentration) (lung cancer cells (A549)): 97.91 and 93.12 and 93.03 and 94.31 and 92.44 and 95.94
Anticancer activity (value at given concentration) [1]: 103.77 and 87.76 and 98.54 and 100.24 and 89.90 and 95.08
Anticancer activity (value at given concentration) [2]: 96.98 and 91.60 and 95.73 and 101.17 and 96.51 and 96.60
Anticancer activity (value at given concentration) [3]: 103.41 and 91.11 and 101.55 and 101.52 and 102.70 and 101.58
